What is called IC50 is the concentration at which inhibition is half-maximal. The inhibition is the share of the control response that was lost under treatment.

Consider 19 compounds from US9381182B2, “Anthranilic acid derivatives: novel inhibitors of advanced glycation end-products (AGEs) formation” (priority 2013, dated 2016).

Data set [1] has as its target T1, Human serum albumin (HSA) glycation by fructose (AGE-HSA) (Homo sapiens, UniProt P02768).
T1 construct: purchased Sigma Aldrich, St. Louis, Mo., USA
Kind of data set: In-vitro antiglycation activity against HSA glycation (fluorescence-based antiglycation assay). The settings on record: for inhibition at 1000 µM: read-out: Antiglycation Activity % Inhibition. It counts as biochemical. The procedure: Methodology: Human serum albumin (HSA) free from essential fatty acids and rutin were obtained from Sigma Aldrich, St. Louis, Mo., USA. D-fructose, sodium azide (NaN3) and dimethyl sulfoxide (DMSO) were acquired from Merck, Darmstadt, Germany. All solutions were prepared in sterile environment in deionized water at room temperature.
Assay Method: The assay was performed according the protocol of (Sattarahmady N, et al., 2007) with a little modification. […] Each sample solution (200 μL, final reaction volume) in triplicate loaded a 96-wll black fluorescence plate and was incubated for a week at 37° C. in an incubator.

Data set [2] can be described thus: MTT-based cytotoxicity assay. The settings on record: mouse, 3T3 mouse fibroblast cells, 3T3 cell-line, read-out: Cytotoxicity % Inhibition. The source says:
Many studies have highlighted the contribution of AGEs in disease states and primarily investigated their deleterious effects and their possible mechanism of actions. Therefore, there is a need of synthesis and investigation of novel antiglycation agents, which are devoid of any adverse effects, may present a therapeutic approach for the delaying and treatment of premature aging and vascular abnormalities in diabetic patients. In the current study, we explored the novel antiglycation agents (1-18), which are potent inhibitors against the glycation process, and belong to anthranilic acid derivatives. The inhibitors were identified by using high throughput screening method, fluorescence-based antiglycation assay (see Table-1). The cytotoxicity studies were performed against mouse fibroblast cell-line (3T3 Cell-line) by employing MTT-based cytotoxicity assay. The mechanistic studies were also conducted to evaluate the effect of novel antiglycation inhibitors on AGEs-induced intracellular reactive oxygen species generation (ROS) and associated impaired proliferation in rat hepatocytes via dichlorofluorescin diacetate (DCFH-DA) and MTT-based cytotoxicity assay, respectively. Previously, these novel antiglycation inhibitors were known for anticancer and anti-inflammatory activities (Congiu C, et al., 2005).

Data set [3] relates to rat hepatocytes (CC1-Cell line). Kind of data set: Fructose-derived AGE-mediated intracellular ROS generation, DCFH-DA technique. As to conditions: no test compound, 24 hours. It counts as cell-based. As for the experimental part: Methodology: DCFH-DA (Dichlorofluorescin diacetate), H2O2 (Hydrogen peroxide), DMSO (Dimethyl sulfoxide) and PBS (Phosphate buffer saline) were obtained from Sigma, St. Louis, Mo., USA. 96-well black fluorescence plates (Tissue culture treated) were purchased from Thermo Fisher Scientific, Waltham, Mass., USA.
Assay Method: Briefly, rat hepatocytes (CC1-Cell line, 6×10^4 cells/mL) were loaded on a black fluorescence 96-well tissue culture treated plate for 24 hours at 37° C. in an incubator, containing 5% CO2. The cells were serum starved for another 24 hours by adding serum free medium-MEM (minimum essential medium) prior to treatment with fructose-derived AGE and the test compounds, anthranilic acid derivatives. Initially the cells were treated with non fluorescent probe, DCFH-DA (10 μM) in the dark for 45 mins. Following incubation the cells were washed twice with 1×PBS and were treated with different concentrations of the AGEs, such as 0, 50, 100, and 200 μg/mL, to evaluate the AGEs influence on the generation of intracellular ROS in a concentration dependent manner. The cells were then treated with the test compounds (novel anthranilic acid derivatives) at various concentrations 24, 33, and 49 μM, co-incubated with the AGE (200 μg/mL) for 24 hours at 37° C. At the end of the incubation, just before 1 hour, the cells were incubated with H2O2 (0.5%) as a control.
Fluorescence Detection: The intensity of green fluorescence, which is emitted upon the oxidation of the probe in the presence of intracellular ROS, is measured at the excitation and emission wavelength of 490 nm and 520 nm, respectively, by Spectra Max Spectrophotometer, Applied Biosystems, CA, USA.
Where, • Test compound=anthranilic acid derivative • Blank=Untreated normal rat hepatocytes • Control=Hepatocytes treated with 0.5% H2O2

Setting [4] is: read-out: Antiglycation Activity IC50 ± SEM.

Where two headings read alike, the source gives them in different places.

T1 sequence (P02768 25-609): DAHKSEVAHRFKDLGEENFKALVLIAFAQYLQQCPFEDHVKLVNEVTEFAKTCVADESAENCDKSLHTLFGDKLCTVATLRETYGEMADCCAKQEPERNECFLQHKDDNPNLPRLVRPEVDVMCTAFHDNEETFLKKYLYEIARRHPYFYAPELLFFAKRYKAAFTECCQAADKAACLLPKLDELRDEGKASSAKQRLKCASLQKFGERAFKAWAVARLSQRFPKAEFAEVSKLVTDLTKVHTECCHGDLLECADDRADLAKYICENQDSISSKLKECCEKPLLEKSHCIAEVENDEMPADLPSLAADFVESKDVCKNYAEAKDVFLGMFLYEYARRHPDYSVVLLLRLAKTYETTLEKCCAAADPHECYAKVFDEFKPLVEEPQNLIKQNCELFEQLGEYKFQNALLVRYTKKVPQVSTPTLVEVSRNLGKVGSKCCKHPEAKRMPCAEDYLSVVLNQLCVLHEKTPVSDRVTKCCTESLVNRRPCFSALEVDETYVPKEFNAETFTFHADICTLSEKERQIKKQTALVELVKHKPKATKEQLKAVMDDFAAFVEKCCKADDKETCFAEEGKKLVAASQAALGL

Turning to `O=C(O)c1ccccc1Nc1ccc(Cl)cc1[N+](=O)[O-]` [Compound 2, 2-(4-Chloro-2-nitroanilino)benzoic acid], in data set [1], the IC50 came to 137 ± 0.002 µM and the inhibition at 1000 µM was found to be 82%. In data set [2], the cytotoxicity is 5.6%.
Regarding `COc1cc(OC)c(Nc2ccccc2C(=O)O)cc1Cl` [Compound 3, 2-(5-Chloro-2,4-dimethoxyanilino)benzoic acid], in data set [1], the IC50 came out at 266 ± 0.016 µM and the inhibition at 1000 µM was 75.1%. The cytotoxicity in data set [2] amounted to 22.4%.
As to `O=C(O)c1ccccc1Nc1ccc(Cl)c([N+](=O)[O-])c1` [Compound 4, 2-(4-Chloro-3-nitroanilino)benzoic acid], in data set [1], half-maximal inhibition (IC50) required 266 ± 0.01 µM and the inhibition at 1000 µM stood at 68.9%. The cytotoxicity in data set [2] was found to be 19.7%.
Regarding `O=C(O)c1ccccc1Nc1ccc(Cl)cc1` [Compound 5, 2-(4-Chloroanilino)benzoic acid], in data set [1], the IC50 came to 298 ± 0.015 µM and the inhibition at 1000 µM is 62%. In addition, in data set [2], the cytotoxicity was 41.3%.
In the case of `O=C(O)c1ccccc1Nc1ccccc1Cl` [Compound 6, 2-(2-Chloroanilino)benzoic acid], in data set [1], the IC50 was 426 ± 0.017 µM and the inhibition at 1000 µM came to 68%. Moreover, the cytotoxicity in data set [2] was found to be 0.9%.
The corresponding values for `O=C(O)c1ccccc1Nc1cc(Cl)cc([N+](=O)[O-])c1` [Compound 7, 2-(3-Chloro-5-nitroanilino)benzoic acid] are 166 ± 0.017 µM, 84.4% and 13%.
On the same counts, the results for `Cc1ccc(Cl)cc1Nc1ccccc1C(=O)O` [Compound 8, 2-(5-Chloro-2-methylanilino)benzoic acid] are 408 ± 0.03 µM, 69% and 3.2%.
As to `O=C(O)c1ccccc1Nc1cc([N+](=O)[O-])ccc1Cl` [Compound 9, 2-(2-Chloro-5-nitroanilino)benzoic acid], in data set [1], inhibition was half-maximal at 314 ± 0.01 µM (IC50) and the inhibition at 1000 µM came to 79.4%. Also, the cytotoxicity in data set [2] is 3%.
For `O=C(O)c1ccccc1Nc1ccc(F)cc1F` [Compound 10, 2-(2,4-Difluoroanilino)benzoic acid], in data set [1], the IC50 is 558 ± 0.066 µM and the inhibition at 1000 µM amounted to 63%. The cytotoxicity in data set [2] turned out to be 1.1%.
Turning to `O=C(O)c1ccccc1Nc1ccc(Cl)c(Cl)c1` [Compound 11, 2-(3,4-Dichloroanilino)benzoic acid], in data set [1], half-maximal inhibition (IC50) was put at 597 ± 0.021 µM and the inhibition at 1000 µM was determined as 62%. In addition, the cytotoxicity in data set [2] was 40.1%.
Take `CCCCc1ccc(Nc2ccccc2C(=O)O)cc1` [Compound 12, 2-(4-Butylanilino)benzoic acid]: in data set [1], the IC50 was found to be 407 ± 0.01 µM and the inhibition at 1000 µM amounted to 70%. In data set [2], the cytotoxicity worked out at 17.3%.
The corresponding values for `Cc1cc(C)cc(Nc2ccccc2C(=O)O)c1` [Compound 13, 2-(3,5-Dimethylanilino)benzoic acid] are 457 ± 0.019 µM, 65% and 4.8%.
Consider `O=C(O)c1ccccc1Nc1cc(Cl)c([N+](=O)[O-])cc1Cl` [Compound 14, 2-(2,5-Dichloro-4-nitroanilino)benzoic acid], for which, in data set [1], the half-inhibitory concentration (IC50) was 84.8 ± 0.003 µM and the inhibition at 1000 µM was found to be 88.8%. The cytotoxicity in data set [2] worked out at 29.6%.
For the compound `O=C(O)c1ccccc1Nc1cc(Cl)ccc1Cl` [Compound 15, 2-(2,5-Dichloroanilino)benzoic acid], in data set [1], the half-inhibitory concentration (IC50) was found to be 678 ± 0.047 µM and the inhibition at 1000 µM came out at 62%. Besides, the cytotoxicity in data set [2] stood at 1.6%.
On to `O=C(O)c1ccccc1Nc1cccc([N+](=O)[O-])c1` [Compound 16, 2-(3-Nitroanilino)benzoic acid], for which the inhibition at 1000 µM in data set [1] worked out at 80%. Besides, the IC50 in data set [1] (setting [4]) was found to be 264 ± 0.013 µM. In addition, in data set [2], the cytotoxicity was determined as 4.1%.
As for `O=C(O)c1ccccc1Nc1cc(Cl)ccc1[N+](=O)[O-]` [Compound 17, 2-(5-Chloro-2-nitroanilino)benzoic acid], in data set [1], the IC50 is 150 ± 0.001 µM and the inhibition at 1000 µM is 78%. Besides, the cytotoxicity in data set [2] came out at 1.5%.
As for `COc1cccc(Nc2ccccc2C(=O)O)c1` [Compound 18, 2-(3-Methoxyanilino)benzoic acid], in data set [1], the IC50 is 398 ± 0.007 µM and the inhibition at 1000 µM turned out to be 71%. Besides, the cytotoxicity in data set [2] is 7.1%.
Consider `C[C@@H]1O[C@@H](OC[C@H]2O[C@@H](Oc3c(-c4ccc(O)c(O)c4)oc4cc(O)cc(O)c4c3=O)[C@H](O)[C@@H](O)[C@@H]2O)[C@H](O)[C@H](O)[C@H]1O` [rutin, reference compound], for which the half-maximal inhibitory concentration (IC50) in data set [1] (setting [4]) was 70 ± 0.5 µM.
As for AGEs, the “Fluorescence (Average), ROS production” value in data set [3] (50 μg/mL) came out at 114.4; in data set [3] (100 μg/mL), 135.3; in data set [3] (200 μg/mL) it was 201.9.
